Results as given in patent publication US20170050966A1, “INHIBITING THE TRANSIENT RECEPTOR POTENTIAL A1 ION CHANNEL” (HYDRA BIOSCIENCES, INC., priority 2014, published 2017).

Columns and labels:
rTRPA1 = molecular target: T1, rTRPA1 (Rattus norvegicus, UniProt Q6RI86); assay: TRPA1 IC50, whole-cell patch clamp; assay type: cell-based; details: rTRPA1, 10 μM AITC; read-out: IC50 Inward current
T1 construct: expressed in transfected cells

[1] = Oral PK and bioavailability of micronized Compound 2 suspension; assay type: in vivo, Sprague-Dawley rats
Protocol: (§1) Additional studies were conducted with micronized Compound 2 in rat, dogs (beagles), and cynomolgus monkeys. Animals received a 10 mg/kg dose oral dose of compound formulated as a suspension in 0.5% methyl cellulose in water for injection at a target concentration of 1 mg/mL, and administered a dose volume of 10 mL/kg by oral gavage in rats or fasted dogs and via oral delivery in fasted cynomolgus monkeys. The % F for the rats in these studies was 85%, 36% for the dogs, and 19% for the monkeys. FIG. 11 depicts the pharmacokinetic profile for these species.
Several in vivo studies were performed to characterize the bioavailability of Compound 2. In Sprague-Dawley rats, a single oral dose of 10 mg/kg to 1000 mg/kg of Compound 2 were compared in a series of experiments. Compound 2 used in these studies was recrystallized from ethanol and micronized.

[2] = as above; assay type: in vivo, dogs (beagles); details: fasted dogs
Protocol: as §1
Three studies were conducted in dogs (beagles). In one study, three fasted dogs were administered 10 mg/kg of a suspension of micronized Compound 2 by gavage. Blood samples were collected from these dogs before dosing and at 0.25, 0.50, 1, 2, 4, 6, 8, 12, and 24 hours post-administration. Blood samples were analyzed to determine plasma levels of Compound 2 by LC/MS/MS. In subsequent studies, pharmacokinetic (PK) parameters were determined following a single oral dose of suspensions of micronized Compound 2 (recrystallized from ethanol) administered to fasted dogs at dose levels of 10, 100, 300, 600, or 1000 mg/kg. Blood samples were taken before dosing and at 0.5, 1, 2, 4, 8, 12, 24 and 48 hours post-dosing and analyzed to determine plasma levels of Compound 2.

CYP1A2 = molecular target: T2, CYP1A2 (Homo sapiens, UniProt P05177); assay: CYP450 inhibition at 10 μM; assay type: biochemical; details: probe Phenacetin, 1A2, substrate Phenacetin
T2 sequence (P05177 1-516): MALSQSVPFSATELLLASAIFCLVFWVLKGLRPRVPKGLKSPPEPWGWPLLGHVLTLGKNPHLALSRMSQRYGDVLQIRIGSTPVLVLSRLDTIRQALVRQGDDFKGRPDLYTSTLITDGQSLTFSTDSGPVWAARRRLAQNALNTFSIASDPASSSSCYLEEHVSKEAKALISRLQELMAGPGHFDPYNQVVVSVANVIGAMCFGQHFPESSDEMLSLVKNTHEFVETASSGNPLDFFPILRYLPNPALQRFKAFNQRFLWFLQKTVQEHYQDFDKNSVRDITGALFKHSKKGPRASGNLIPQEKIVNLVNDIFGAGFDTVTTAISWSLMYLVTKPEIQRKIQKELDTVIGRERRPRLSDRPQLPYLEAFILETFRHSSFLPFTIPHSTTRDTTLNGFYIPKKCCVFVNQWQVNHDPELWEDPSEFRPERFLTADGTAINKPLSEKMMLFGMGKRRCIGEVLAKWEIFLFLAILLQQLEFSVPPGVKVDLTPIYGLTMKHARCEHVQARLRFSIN

beagle dogs = assay: Hepatotoxicity safety profile, serum biomarkers; assay type: in vivo; details: for ALP d-5 / ALT d-5 / AST d-5 / GGT d-5: day -5 before dosing; for ALP d5 / ALT d5 / AST d5 / GGT d5: day 5
Protocol: Compound 2 in vehicle (0.5% methylcellulose [400 cps] in deionized water) was administered orally once daily for five consecutive days by gavage once to 3 groups of non-naïve male and female beagle dogs. Each group received one dose level. […] […] The dose volume was 10 ml/kg for all groups. Hepatoxicity was measured via the serum biomarkers of alanine aminotransferease [ALT], aspartate aminotransferase [AST], alkaline phosphastase [ALP] and gamma-glutamyl transferase [GGT] which represent hepatotoxicity or bile duct injury.

sprague-dawley rats = assay: Hepatotoxicity safety profile, serum biomarkers; assay type: in vivo; details: for ALP d28 / ALT d28 / AST d28 / GGT d28: day 28
Protocol: Compound 2 in the vehicle (0.5% methylcellulose [400 cps]) was administered orally by gavage once daily for a minimum of 28 consecutive days to 3 groups of sprague-dawley rats from Charles River Laboratories. Each group received one dosage level. Dosage levels were 30, 100, and 300 mg/kg/day for each group. […] The dose volume was 10 ml/kg for all groups. Hepatoxicity was measured via the serum biomarkers of alanine aminotransferease [ALT], aspartate aminotransferase [AST], alkaline phosphastase [ALP] and gamma-glutamyl transferase [GGT] which represent hepatotoxicity or bile duct injury.

CYP2C9 = CYP2C9 (Homo sapiens, UniProt P11712); assay: in vitro; details: probe Diclofenac
Sequence of CYP2C9 (P11712 whole entry): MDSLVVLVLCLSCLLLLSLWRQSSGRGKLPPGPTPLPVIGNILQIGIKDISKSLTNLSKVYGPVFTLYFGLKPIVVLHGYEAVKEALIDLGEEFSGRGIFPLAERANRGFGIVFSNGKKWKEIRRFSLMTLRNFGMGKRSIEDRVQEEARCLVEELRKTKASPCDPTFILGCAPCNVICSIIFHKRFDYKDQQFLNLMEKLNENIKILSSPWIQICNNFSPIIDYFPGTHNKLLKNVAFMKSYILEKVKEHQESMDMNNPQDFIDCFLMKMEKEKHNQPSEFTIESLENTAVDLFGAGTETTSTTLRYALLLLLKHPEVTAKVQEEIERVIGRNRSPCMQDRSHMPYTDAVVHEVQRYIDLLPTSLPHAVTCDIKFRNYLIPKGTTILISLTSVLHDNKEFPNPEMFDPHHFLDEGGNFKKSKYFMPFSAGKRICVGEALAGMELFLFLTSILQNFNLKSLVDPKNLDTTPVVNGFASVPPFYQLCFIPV

T1 sequence (Q6RI86 whole entry): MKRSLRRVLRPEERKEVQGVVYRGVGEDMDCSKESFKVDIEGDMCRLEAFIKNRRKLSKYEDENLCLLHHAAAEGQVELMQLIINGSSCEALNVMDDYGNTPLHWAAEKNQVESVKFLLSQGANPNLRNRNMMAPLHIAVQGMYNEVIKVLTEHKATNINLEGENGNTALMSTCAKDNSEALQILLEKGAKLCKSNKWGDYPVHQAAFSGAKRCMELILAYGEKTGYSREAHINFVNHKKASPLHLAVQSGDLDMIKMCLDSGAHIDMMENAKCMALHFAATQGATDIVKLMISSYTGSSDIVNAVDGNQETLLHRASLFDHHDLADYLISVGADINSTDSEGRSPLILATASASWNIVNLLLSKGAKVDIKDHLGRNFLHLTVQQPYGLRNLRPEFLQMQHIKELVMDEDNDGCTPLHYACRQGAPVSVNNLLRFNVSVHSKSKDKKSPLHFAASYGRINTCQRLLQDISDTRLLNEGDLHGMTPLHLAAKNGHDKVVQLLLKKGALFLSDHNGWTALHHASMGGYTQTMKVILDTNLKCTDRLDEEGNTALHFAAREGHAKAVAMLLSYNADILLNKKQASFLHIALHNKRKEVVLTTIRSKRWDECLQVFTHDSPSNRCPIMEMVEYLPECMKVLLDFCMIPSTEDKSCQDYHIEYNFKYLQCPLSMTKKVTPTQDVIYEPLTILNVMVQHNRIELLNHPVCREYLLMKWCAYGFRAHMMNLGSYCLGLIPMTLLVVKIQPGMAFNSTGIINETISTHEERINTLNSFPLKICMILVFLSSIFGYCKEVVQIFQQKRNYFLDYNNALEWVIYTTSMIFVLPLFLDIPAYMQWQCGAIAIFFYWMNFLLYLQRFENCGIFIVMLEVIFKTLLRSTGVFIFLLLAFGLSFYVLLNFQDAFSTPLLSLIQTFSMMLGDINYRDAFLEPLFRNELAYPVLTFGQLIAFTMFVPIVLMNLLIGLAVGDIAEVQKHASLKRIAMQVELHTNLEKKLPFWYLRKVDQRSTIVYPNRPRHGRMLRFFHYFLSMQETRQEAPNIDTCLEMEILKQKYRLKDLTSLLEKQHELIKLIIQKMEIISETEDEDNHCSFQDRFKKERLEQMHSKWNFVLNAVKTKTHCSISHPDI

C[C@@H](C(=O)Nc1ccnc(-c2cnc(N3CCC[C@H]3C(F)(F)F)nc2)n1)n1cnc2c1c(=O)n(C)c(=O)n2C [Compound 2, (S)-2-(1,3-dimethyl-2,6-dioxo-2,3-dihydro-1H-purin-7(6H)-yl)-N-(2′-((S)-2-(trifluoromethyl)pyrrolidin-1-yl)-[2,5′-bipyrimidin]-4-yl)propanamide]
IC50 (rTRPA1): 22.9 ± 4.6 nM | Exposures based on AUC and Cmax versus dose ([1]; Sprague-Dawley rats, single oral dose 10 mg/kg to 1000 mg/kg): increased with doses up to 1000 mg/kg | bioavailability ([1]; Sprague-Dawley, rat, plasma, rats, 10 mg/kg oral, micronized suspension in 0.5% methyl cellulose): 85% | bioavailability ([2]; beagle, dog, plasma, 10 mg/kg oral, micronized suspension): 36% | Exposures on an AUC and Cmax basis versus dose ([2]; single oral dose 10 to 1000 mg/kg): increased with doses up to 600 mg/kg | inhibition at 10 µM (CYP1A2): 9% | ALP d-5 (beagle dogs; 30 mg/kg group): 93.0 U/L | ALT d-5 (beagle dogs; 30 mg/kg group): 19.0 U/L | AST d-5 (beagle dogs; 30 mg/kg group): 20.0 U/L | GGT d-5 (beagle dogs; 30 mg/kg group): 0.0 U/L | ALP d5 (beagle dogs; 30 mg/kg oral once daily): 143.0 U/L | ALT d5 (beagle dogs; 30 mg/kg oral once daily): 20.0 U/L | AST d5 (beagle dogs; 30 mg/kg oral once daily): 22.0 U/L | GGT d5 (beagle dogs; 30 mg/kg oral once daily): 0.0 U/L | ALP d-5 (beagle dogs; 100 mg/kg group): 120.0 U/L | ALT d-5 (beagle dogs; 100 mg/kg group): 21.0 U/L | AST d-5 (beagle dogs; 100 mg/kg group): 20.0 U/L | GGT d-5 (beagle dogs; 100 mg/kg group): 0.0 U/L | ALP d5 (beagle dogs; 100 mg/kg oral once daily): 141.0 U/L | ALT d5 (beagle dogs; 100 mg/kg oral once daily): 19.0 U/L | AST d5 (beagle dogs; 100 mg/kg oral once daily): 21.0 U/L | GGT d5 (beagle dogs; 100 mg/kg oral once daily): 0.5 U/L | ALP d-5 (beagle dogs; 300 mg/kg group): 118.0 U/L | ALT d-5 (beagle dogs; 300 mg/kg group): 28.0 U/L | AST d-5 (beagle dogs; 300 mg/kg group): 22.0 U/L | GGT d-5 (beagle dogs; 300 mg/kg group): 0.0 U/L | ALP d5 (beagle dogs; 300 mg/kg oral once daily): 101.0 U/L | ALT d5 (beagle dogs; 300 mg/kg oral once daily): 21.0 U/L | AST d5 (beagle dogs; 300 mg/kg oral once daily): 22.0 U/L | GGT d5 (beagle dogs; 300 mg/kg oral once daily): 0.0 U/L | serum biomarkers of hepatotoxicity (ALT, AST, ALP, GGT) (beagle dogs; beagle dogs, oral once daily for five days): did not elevate the serum biomarkers up to and including a dose of 300 mg/kg | ALP d28 (sprague-dawley rats; 30 mg/kg/day oral): 168.0 U/L | ALT d28 (sprague-dawley rats; 30 mg/kg/day oral): 33.0 U/L | AST d28 (sprague-dawley rats; 30 mg/kg/day oral): 98.0 U/L | GGT d28 (sprague-dawley rats; 30 mg/kg/day oral): 0.0 U/L | ALP d28 (sprague-dawley rats; 100 mg/kg/day oral): 185.0 U/L | ALT d28 (sprague-dawley rats; 100 mg/kg/day oral): 34.0 U/L | AST d28 (sprague-dawley rats; 100 mg/kg/day oral): 100.0 U/L | GGT d28 (sprague-dawley rats; 100 mg/kg/day oral): 0.0 U/L | ALP d28 (sprague-dawley rats; 300 mg/kg/day oral): 163.0 U/L | ALT d28 (sprague-dawley rats; 300 mg/kg/day oral): 43.0 U/L | AST d28 (sprague-dawley rats; 300 mg/kg/day oral): 115.0 U/L | GGT d28 (sprague-dawley rats; 300 mg/kg/day oral): 0.0 U/L | serum biomarkers of hepatotoxicity (ALT, AST, ALP, GGT) (sprague-dawley rats; sprague-dawley rats, oral once daily for 28 days): did not elevate the serum biomarkers up to and including a dose of 300 mg/kg | inhibition at 10 µM (CYP2C9): 22%
